{"source": "patent US20240166726A1", "about": "“UNIVERSAL TARGETING STRATEGY TO INHIBIT REPLICATION OF ZIKV AND FLAVIVIRUSES” (Sanford Burnham Prebys Medical Discovery Institute, priority 2022, published 2024)", "key": {"DENV2 NS2B-NS3pro": {"molecular_target": "T1, DENV2 NS2B-NS3pro (Dengue virus type 2, UniProt P29990)", "T1 construct": "comprises an NS2B polypeptide that associates with a proteolytic N-terminal fragment of NS3 polypeptide (NS3pro); a proteolytic N-terminal fragment of NS3 polypeptide (NS3pro) to form NS2B-NS3pro", "T1 sequence (P29990 1346-1475)": "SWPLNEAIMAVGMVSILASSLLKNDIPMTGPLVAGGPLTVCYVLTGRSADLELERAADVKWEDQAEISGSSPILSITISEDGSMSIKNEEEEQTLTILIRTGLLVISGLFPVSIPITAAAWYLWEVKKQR", "T1 sequence (P29990 1476-1653)": "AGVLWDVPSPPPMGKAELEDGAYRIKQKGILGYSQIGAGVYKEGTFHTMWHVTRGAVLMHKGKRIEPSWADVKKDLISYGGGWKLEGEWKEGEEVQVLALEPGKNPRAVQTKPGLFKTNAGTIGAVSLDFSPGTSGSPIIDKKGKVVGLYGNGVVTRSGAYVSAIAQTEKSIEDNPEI", "assay": "Inhibition of NS2B-NS3pro proteolysis, DENV2", "assay_type": "biochemical", "conditions": "in vitro", "excerpt": "(§1) The open conformation of NS2B-NS3pro is formed by rearrangement/dissociation of the NS2B cofactor from the C-terminal half of NS3pro, leading to a loss of proteolytic activity. NS2B dissociation uncovers a hydrophobic cleft in NS3pro, which presents a druggable pocket that is relatively conserved between the flaviviruses. Allosteric inhibitors of ZIKV, WNV, and DENV2 NS2B-NS3pro were designed in silico to bind a region of NS2B-NS3pro distant from the proteolytic active site. […] RNA binding to ZIKV NS2B-NS3pro was tested with a sub-library of these inhibitors, and some compounds were potent inhibitors of RNA binding to ZIKV NS2B-NS3pro, as depicted in FIG. 7. In Top of FIG. 7, small molecule allosteric inhibitors (10 μM) targeting open/super-open conformations of ZIKV NS2B-NS3pro block ssRNA binding. Fluorescent polarization (%) using FAM labeled ssRNA (20 poly-rU). * p<0.05, […], *** p<0.0005, […] by two-tailed unpaired t-test with Welch's correction. In Bottom of FIG. 7, IC50 for inhibition of ZIKV, WNV, and DENV2 NS2B-NS3pro proteolysis by the indicated inhibitors. […] NSC86314 was previously shown to inhibit WNV and DENV2 replicons in cell-based assays with IC50 values of<50 μM. […]"}, "ZIKV NS2B-NS3pro [1]": {"molecular_target": "T2, ZIKV NS2B-NS3pro (Zika virus, UniProt A0A024B7W1)", "T2 construct": "hydrophilic cytoplasmic portion of NS2B (residues 48-94) was linked to the NS3 protease domain; was linked to the NS3 protease domain via a 9-residue linker L; His tag (N, cleaved yes); made in house; host or cells: E. coli BL21 (DE3) Codon Plus", "T2 sequence (A0A024B7W1 1503-1680)": "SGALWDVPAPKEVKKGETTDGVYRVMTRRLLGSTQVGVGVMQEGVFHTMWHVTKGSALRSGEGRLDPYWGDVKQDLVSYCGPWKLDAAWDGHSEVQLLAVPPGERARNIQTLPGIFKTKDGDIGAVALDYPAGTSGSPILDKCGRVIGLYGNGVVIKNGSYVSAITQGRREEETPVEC", "T2 sequence (A0A024B7W1 1420-1466)": "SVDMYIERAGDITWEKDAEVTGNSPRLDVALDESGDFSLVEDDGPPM", "assay": "Fluorescent proteinase activity assay (Pyr-RTKR-AMC cleavage)", "assay_type": "biochemical", "protocol": "Fluorescent proteinase activity assay and IC50 determination. The peptide cleavage activity assays with purified ZIKV NS2B-NS3pro polypeptides were performed in 0.2 ml TBS containing 20% glycerol and 0.005% Brij 35 containing 20 μM of the cleavage peptide pyroglutamic acid Pyr-Arg-Thr-Lys-Arg-7-amino-4-methylcoumarin (Pyr-RTKR-AMC) and 10 nM enzyme. The reaction velocity was monitored continuously at λex=360 nm and λem=465 nm on a Tecan fluorescence spectrophotometer (Männedorf, Switzerland). To determine the IC50 values of the inhibitory compounds, ZIKV NS2B-NS3pro constructs (20 nM) were preincubated for 30 min at 20° C. with various concentrations of compounds in 0.1 ml TBS containing 20% glycerol and 0.005% Brij 35. Pyr-RTKR-AMC substrate (20 μM) was then added in 0.1 ml of the same buffer. IC50 values were calculated by determining the compound concentration required to obtain 50% of the maximal inhibition of NS2B-NS3pro activity against Pyr-RTKR-AMC. GraphPad Prism was used as fitting software. All assays were performed in triplicate in 96-well plates.\nFluorogenic substrate cleavage assays were performed to test whether binding of RNA interferes with the proteolytic activity of NS2B-NS3pro."}, "WNV replicons": {"tested_on": "WNV replicons", "conditions": "cell-based assays, previously shown; cited from earlier work"}, "WNV NS2B-NS3pro": {"molecular_target": "T3, WNV NS2B-NS3pro (West Nile virus, UniProt P06935)", "T3 construct": "comprises an NS2B polypeptide that associates with a proteolytic N-terminal fragment of NS3 polypeptide (NS3pro); a proteolytic N-terminal fragment of NS3 polypeptide (NS3pro) to form NS2B-NS3pro", "T3 sequence (P06935 1371-1501)": "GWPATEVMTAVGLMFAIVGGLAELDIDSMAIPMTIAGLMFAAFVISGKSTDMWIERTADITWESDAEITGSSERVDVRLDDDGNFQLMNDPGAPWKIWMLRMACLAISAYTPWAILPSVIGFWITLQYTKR", "T3 sequence (P06935 1502-1679)": "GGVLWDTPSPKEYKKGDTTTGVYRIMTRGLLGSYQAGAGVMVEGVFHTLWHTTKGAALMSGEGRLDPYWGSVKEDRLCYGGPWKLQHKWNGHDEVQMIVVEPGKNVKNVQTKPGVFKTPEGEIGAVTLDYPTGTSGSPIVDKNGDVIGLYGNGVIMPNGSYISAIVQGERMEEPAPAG", "assay": "Inhibition of NS2B-NS3pro proteolysis, WNV", "assay_type": "biochemical", "conditions": "in vitro", "excerpt": "as §1"}, "DENV2 replicons": {"tested_on": "DENV2 replicons", "conditions": "cell-based assays, previously shown; cited from earlier work"}, "ZIKV NS2B-NS3pro [2]": {"molecular_target": "T2, ZIKV NS2B-NS3pro", "assay": "Inhibition of ssRNA binding to NS2B-NS3pro by inhibitors (RNA FP assay)", "excerpt": "The DNA constructs were cloned into pGEX6P1 plasmid using BamH1 and EcoR1 cleavage sites, resulting in fusion of a GST tag at the N-terminus of the NS2B cofactor. E. coli were transformed with the individual recombinant constructs, and protein production was induced and the cells were disrupted as described above. The supernatant fraction containing the GST-tagged constructs were loaded onto Protino Glutathione Agarose 4B beads and impurities were removed by washing with TBS. To cleave the GST tag from the viral protease, the beads were co-incubated with 3C protease. The NS2B-NS3pro constructs were then additionally purified by gel filtration on an S200 26/60 column equilibrated with TBS. Purity of the purified construct was analyzed using SDS-PAGE followed by Coomassie staining. Purified protease was concentrated to approximately 10 mg/ml using 10 kDa-cutoff concentrators, flash frozen in small aliquots, and stored at −80° C. […]\nFluorescence polarization assay of RNA/ssDNA binding to ZIKV NS2B-NS3 protease. Binding between purified recombinant ZIKV NS2B-NS3pro constructs and either RNA or ssDNA was assessed using a fluorescence polarization (FP) assay conducted in 0.1 ml of TBS containing 1 mM MgCl2 at 25° C. for 1 h. […] Polarization was monitored on a Bruker Daltonics fluorescence spectrophotometer. […]"}}}
{"compound": "Nc1cc(N)c(N=Nc2ccc(S(=O)(=O)Nc3nccs3)cc2)cc1N=Nc1ccc(S(=O)(=O)Nc2nccs2)cc1", "note": "[NSC86314]", "values": [{"measurement": "IC50, NS2B-NS3pro from DENV", "setting": "DENV2 NS2B-NS3pro", "value": "low to sub-micromolar"}, {"measurement": "IC50, NS2B-NS3pro from ZIKV", "setting": "ZIKV NS2B-NS3pro [1]; in vitro", "value": "low to sub-micromolar"}, {"measurement": "IC50", "setting": "WNV replicons", "value": "< 50", "unit": "µM"}, {"measurement": "IC50, NS2B-NS3pro from WNV", "setting": "WNV NS2B-NS3pro", "value": "low to sub-micromolar"}, {"measurement": "IC50", "setting": "DENV2 replicons", "value": "< 50", "unit": "µM"}]}
{"compound": "aprotinin", "values": [{"measurement": "RNA binding to purified NS2B-NS3pro-inhibitor complex", "setting": "ZIKV NS2B-NS3pro [2]; closed conformation induced by substrate-mimicking inhibitor", "value": "no RNA binding"}]}
{"compound": "O=C(O)c1cc(/N=N/c2ccc(S(=O)(=O)Nc3nccs3)cc2)ccc1O", "note": "[NSC114428]", "values": [{"measurement": "Inhibition of proteolytic activity of ZIKV protease", "setting": "ZIKV NS2B-NS3pro [1]; FIG. 7", "value": "low μM range"}, {"measurement": "Inhibition of RNA binding", "setting": "ZIKV NS2B-NS3pro [2]; FIG. 7", "value": "low μM range"}]}
